Reference: patent US6569906B1, “Composition containing a precursor capable of being hydrolysed by glucocerebrosidase” (Pierre Fabre Dermo-Cosmetique, priority 1998, dated 2003)

Assays:
[1] = Antioxidant activity against the peroxidation of squalene, MDA as indicator
Description: (§1) The concentration of MDA released is measured by complexing with thiobarbituric acid in an acidic medium. The chromogenic complex formed absorbs at 532 nm. Its quantification is monitored by fluorimetry.
The antioxidant activity of various compounds against the peroxidation of an unsaturated lipid, squalene, is measured.

[2] = MDA released in a cream with borage oil containing vitamin E after two hour solar exposure (thiobarbituric acid complex); conditions: for Concentration of MDA released: two hour solar exposure
Description: The concentration of malonaldehyde (MDA) released in a cream containing increasing quantities of an antioxidant, vitamin E (or alpha-tocopherol), which is subjected to an oxidative stress, is measured.
The cream containing vitamin E also contains borage oil which is naturally rich in linoleic acid. Oxidative stress consists in a two hour solar exposure.
as §1

glucocerebrosidase = target: T1, glucocerebrosidase (Homo sapiens, UniProt P04062); test: Kinetics of hydrolysis of glucosylated precursors by glucocerebrosidase of a stratum corneum extract; type: biochemical; conditions: for Release of the active agent from its glucosylated precursor: from the glucopyranoside precursor; for Quantity of molecule released: phthalate buffer pH 5.6, 24 hours incubation, freeze-dried cutaneous extract, three strippings of 15 cm^2
T1 construct: a freeze-dried cutaneous extract obtained after taking a sample by three successive strippings of 15 cm^2; from tissue; host or cells: stratum corneum (powdered, freeze-dried cutaneous extract from three successive strippings)
T1 sequence (P04062 40-536): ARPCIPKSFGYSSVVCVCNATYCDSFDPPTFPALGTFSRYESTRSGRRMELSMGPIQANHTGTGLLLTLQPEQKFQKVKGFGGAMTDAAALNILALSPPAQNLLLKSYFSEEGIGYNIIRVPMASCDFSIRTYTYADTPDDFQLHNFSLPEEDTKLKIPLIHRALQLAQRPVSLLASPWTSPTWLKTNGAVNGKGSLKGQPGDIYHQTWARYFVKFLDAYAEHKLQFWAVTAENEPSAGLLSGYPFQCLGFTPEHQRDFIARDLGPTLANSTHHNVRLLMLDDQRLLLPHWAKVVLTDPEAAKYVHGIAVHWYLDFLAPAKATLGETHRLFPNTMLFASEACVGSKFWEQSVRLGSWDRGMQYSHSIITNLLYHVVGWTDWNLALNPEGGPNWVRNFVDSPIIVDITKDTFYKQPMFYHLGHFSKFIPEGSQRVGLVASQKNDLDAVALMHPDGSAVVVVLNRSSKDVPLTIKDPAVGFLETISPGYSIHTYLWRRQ
Description: The precursor and the stratum corneum sample in powdered form are incorporated into a liquid medium buffered with a phthalate buffer at pH 5.6. The mixture is incubated for 24 hours and the quantity of active agent released is assayed by densitometry on a thin-layer chromatography plate.
The following table gives, for various glucosylated precursors, the quantity of molecule released following their hydrolysis by glucocerebrosidase over 24 hours by a freeze-dried cutaneous extract obtained after taking a sample by three successive strippings of 15 cm^2.

[3] = Nonirradiated; cream containing 0.4%
Description: The photostability of delta-tocopheryl-glucopyranoside and that of delta-tocopherol are compared.
Samples of a cream containing 0.4% of delta-tocopheryl-glucopyranoside or of delta-tocopherol are irradiated with a 28 J/cm^2 incident light of 290 to 800 nm (5 DEM).

Row | SMILES | Quantity of molecule released (glucocerebrosidase) [n mol/hour] | Quantity of MDA released [1] [μg MDA] | also measured
1 | CC(C)CCCC(C)CCCC(C)CCCC1(C)CCc2cc(O)ccc2O1 (stereo not shown) [Tocol] | – | 6 ± 1.9 | –
2 | Cc1c(C)c2c(c(C)c1O)CC[C@@](C)(CCC[C@H](C)CCC[C@H](C)CCCC(C)C)O2 [vitamin E, alpha-tocopherol] | – | – | Concentration of MDA released ([2]; 0.05 % by mass vitamin E in the cream): 1.2 ± 0.15 μg MDA/100 mg cream; Concentration of MDA released ([2]; 0.1 % by mass vitamin E in the cream): 1.9 ± 0.20 μg MDA/100 mg cream; Concentration of MDA released ([2]; 0.15 % by mass vitamin E in the cream): 2.0 ± 0.20 μg MDA/100 mg cream; Pro-inflammatory effect ([2]; cream rich in polyunsaturated fatty acid): causes a pro-inflammatory effect; Release of the active agent from its glucosylated precursor (glucocerebrosidase): not released
3 | Cc1cc(O[C@@H]2O[C@H](CO)[C@@H](O)[C@H](O)[C@H]2O)cc2c1O[C@](C)(CCC[C@H](C)CCC[C@H](C)CCCC(C)C)CC2 [Delta-tocopherol-glucopyranoside] | 14.3 ± 1 | 128 ± 38 | Amount of compound in the cream [3]: 311 ± 7 Micromoles
4 | Cc1cc(O)cc2c1O[C@](C)(CCC[C@H](C)CCC[C@H](C)CCCC(C)C)CC2 [Delta-tocopherol, delta-tocopherol] | – | 7.2 ± 1.7 | Amount of compound in the cream [3]: 310 ± 14 Micromoles
5 | CCCCCCCCCCCCCCCC(=O)Oc1c(C)c(C)c2c(c1C)CCC(C)(CCCC(C)CCCC(C)CCCC(C)C)O2 (stereo not drawn) [Vitamin E palmitate, alpha-tocopherol palmitate] | – | 182.7 ± 39 | –
6 | Cc1cc(=O)oc2cc(OC3O[C@H](CO)[C@@H](O)[C@H](O)[C@H]3O)ccc12 (stereo partly shown) [4-methylumbelliferyl-glucopyranoside, 4-methylumbelliferyl glucopyranoside] | 100 ± 7 | – | –
7 | Cc1c(O)cc2c(c1C)O[C@](C)(CCC[C@H](C)CCC[C@H](C)CCCC(C)C)CC2 [γ-tocopherol] | – | – | Release of the active agent from its glucosylated precursor (glucocerebrosidase): not released

Now from value to compound, other results behind:

Row | Quantity of molecule released (glucocerebrosidase) [n mol/hour] | SMILES | Quantity of MDA released [1] [μg MDA] | also measured
8 | 0 | Cc1c(OC2O[C@H](CO)[C@@H](O)[C@H](O)[C@H]2O)cc2c(c1C)OC(C)(CCCC(C)CCCC(C)CCCC(C)C)CC2 (stereo partly shown) [γ-Tocopheryl-glucopyranoside] | – | –
9 | 14.8 ± 1.2 | CC(C)CCCC(C)CCCC(C)CCCC1(C)CCc2cc(OC3OC(CO)C(O)C(O)C3O)ccc2O1 (stereo not shown) [Tocol-glucopyranoside, tocol-glucopyranoside] | 142 ± 28 | –
10 | 0 | Cc1c(C)c2c(c(C)c1OC1O[C@H](CO)[C@@H](O)[C@H](O)[C@H]1O)CCC(C)(CCCC(C)CCCC(C)CCCC(C)C)O2 (stereo partly drawn) [α-Tocopheryl-glucopyranoside] | – | –
11 | 0.2 ± 0.5 | OC[C@H]1OC(Oc2ccccc2)[C@H](O)[C@@H](O)[C@@H]1O (stereo partly shown) [Phenylglucopyranoside] | – | –
